Literature values, collected in publication PMC12087591 (Drug Design, Development and Therapy, 2025).

Tested on: COVID-19
Settings: unvaccinated COVID-19 patients

Structure (SMILES): CC(C)(C)[C@H](NC(=O)C(F)(F)F)C(=O)N1C[C@H]2[C@@H]([C@H]1C(=O)N[C@H](C#N)C[C@@H]1CCNC1=O)C2(C)C [nirmatrelvir]
- reduction of hospitalization risk: 89%
